In the first test the target is T1, HDAC6 enzyme (Homo sapiens, UniProt Q9UBN7).
T1 construct: HDAC6 enzyme prepared by transducing full length HDAC6 gene into Sf-9 insect cells; GST; purchased SignalChem; host or cells: Sf-9 insect cells
T1 sequence (Q9UBN7 1-1215): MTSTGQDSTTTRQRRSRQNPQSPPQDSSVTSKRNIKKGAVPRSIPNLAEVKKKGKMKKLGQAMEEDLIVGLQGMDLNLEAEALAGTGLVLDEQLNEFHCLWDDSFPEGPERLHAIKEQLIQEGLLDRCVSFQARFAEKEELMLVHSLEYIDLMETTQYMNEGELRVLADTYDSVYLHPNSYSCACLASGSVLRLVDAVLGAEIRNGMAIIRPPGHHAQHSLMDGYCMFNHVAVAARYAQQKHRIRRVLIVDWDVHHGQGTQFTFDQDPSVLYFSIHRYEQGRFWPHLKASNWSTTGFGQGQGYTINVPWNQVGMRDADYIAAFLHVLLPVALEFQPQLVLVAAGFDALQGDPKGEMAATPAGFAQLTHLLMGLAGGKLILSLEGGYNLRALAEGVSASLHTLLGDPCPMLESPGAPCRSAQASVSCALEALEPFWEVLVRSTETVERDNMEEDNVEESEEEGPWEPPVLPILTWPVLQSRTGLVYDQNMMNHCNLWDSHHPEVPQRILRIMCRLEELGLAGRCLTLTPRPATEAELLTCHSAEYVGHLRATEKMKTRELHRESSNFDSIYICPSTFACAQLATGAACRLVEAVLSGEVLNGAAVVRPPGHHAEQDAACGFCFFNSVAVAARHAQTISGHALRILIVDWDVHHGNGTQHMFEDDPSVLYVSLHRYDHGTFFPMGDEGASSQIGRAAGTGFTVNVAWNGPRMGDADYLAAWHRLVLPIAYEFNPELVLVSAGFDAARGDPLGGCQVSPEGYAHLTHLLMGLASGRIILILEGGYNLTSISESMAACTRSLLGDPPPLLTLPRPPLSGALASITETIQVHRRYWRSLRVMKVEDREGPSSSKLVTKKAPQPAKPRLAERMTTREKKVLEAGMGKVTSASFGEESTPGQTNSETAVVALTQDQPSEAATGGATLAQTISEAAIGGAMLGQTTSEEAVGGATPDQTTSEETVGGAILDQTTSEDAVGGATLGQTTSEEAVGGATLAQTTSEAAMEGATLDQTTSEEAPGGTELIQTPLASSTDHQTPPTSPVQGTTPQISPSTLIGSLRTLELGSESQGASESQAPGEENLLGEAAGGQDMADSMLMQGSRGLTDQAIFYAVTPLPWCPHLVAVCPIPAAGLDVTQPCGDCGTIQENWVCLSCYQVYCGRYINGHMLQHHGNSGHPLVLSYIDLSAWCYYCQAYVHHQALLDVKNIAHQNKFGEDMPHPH
The test can be described thus: HDAC6 enzyme inhibitory assay (HDAC-Glo I/II Assay kit). The test is classed as biochemical. As to conditions: wells without enzyme = 100% inhibition. Summed up: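 Full-length GST-purified HDAC6 from Sf-9 cells preincubated with compound 60 min at room temperature in Tris-HCl pH 7.5 buffer with MgCl2, KCl, NaCl, glutathione, Tween-20. Substrate-developer reaction 20 min, luminescence read; no-enzyme wells set as 100% inhibition.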
On to `O=C1c2cc(-c3nnc(C(F)F)o3)ccc2CN1[C@H](c1ccccn1)[C@@H](O)c1ccccc1` (single isomer, unassigned) [Example 103, 6-[5-(difluoromethyl)-1,3,4-oxadiazol-2-yl]-2-[(1R*,2S*)-2-hydroxy-2-phenyl-1-(pyridin-2-yl)ethyl]-2,3-dihydro-1H-isoindol-1-one], for which the “HDAC6 inhibitory rate (%) (10 μM)” value is 100%. In the case of `O=C1c2cc(-c3nnc(C(F)F)o3)ccc2CN1[C@H](c1cnccn1)[C@@H](O)c1ccc(F)cc1` (single isomer, unassigned) [Example 99, 6-[5-(difluoromethyl)-1,3,4-oxadiazol-2-yl]-2-[(1R*,2S*)-2-(4-fluorophenyl)-2-hydroxy-1-(pyrazin-2-yl)ethyl]-2,3-dihydro-1H-isoindol-1-one], the “HDAC6 inhibitory rate (%) (10 μM)” value stood at 100%. Same read-out and setting: the figure for `O=C1c2cc(-c3nnc(C(F)F)o3)ccc2CN1[C@H](c1cnccn1)[C@@H](O)c1ccc(F)c(F)c1` (single isomer, unassigned) [Example 86, 6-[5-(difluoromethyl)-1,3,4-oxadiazol-2-yl]-2-[(1R*,2S*)-2-(3,4-difluorophenyl)-2-hydroxy-1-(pyrazin-2-yl)ethyl]-2,3-dihydro-1H-isoindol-1-one] is 100%; for `O=C1c2cc(-c3nnc(C(F)F)o3)ccc2CN1[C@H](c1cnccn1)[C@@H](O)c1ccccc1` (single isomer, unassigned) [Example 128, 6-[5-(difluoromethyl)-1,3,4-oxadiazol-2-yl]-2-[(1R*,2S*)-2-hydroxy-2-phenyl-1-(pyrazin-2-yl)ethyl]-2,3-dihydro-1H-isoindol-1-one] it is 99%. Same read-out and setting: the figure for `O=C1c2cc(-c3nnc(C(F)F)o3)ccc2CN1[C@H](c1ccccn1)[C@@H](O)c1cccc(F)c1` (single isomer, unassigned) [Example 62, 6-[5-(difluoromethyl)-1,3,4-oxadiazol-2-yl]-2-[(1R*,2S*)-2-(3-fluorophenyl)-2-hydroxy-1-(pyridin-2-yl)ethyl]-2,3-dihydro-1H-isoindol-1-one] is 100%.

Staying with this test, now noted: wells without enzyme = 100% inhibition, 10 µM.
`O=C1c2cc(-c3nnc(C(F)F)o3)ccc2CN1[C@H](c1ccc(F)cn1)[C@@H](O)c1ccccn1` (single isomer, unassigned) [Example 60]: the “HDAC6 inhibitory rate (%) (10 μM)” value worked out at 99%. Regarding `O=C1c2cc(-c3nnc(C(F)F)o3)ccc2CN1[C@H](c1ccccn1)[C@@H](O)c1cc(Cl)ccn1` (single isomer, unassigned) [Example 124, 2-[(1R*,2R*)-2-(4-chloropyridin-2-yl)-2-hydroxy-1-(pyridin-2-yl)ethyl]-6-[5-(difluoromethyl)-1,3,4-oxadiazol-2-yl]-2,3-dihydro-1H-isoindol-1-one], the “HDAC6 inhibitory rate (%) (10 μM)” value worked out at 100%.

Still in this test, the particulars now being: wells without enzyme = 100% inhibition, read-out: HDAC6 inhibitory rate (%) (10 μM).
Turning to `O=C1c2cc(-c3nnc(C(F)F)o3)ccc2CN1[C@H](c1ccccn1)[C@H](O)c1ccc(F)cc1` (racemic) [Example 141, 6-[5-(difluoromethyl)-1,3,4-oxadiazol-2-yl]-2-[(1RS,2RS)-2-(4-fluorophenyl)-2-hydroxy-1-(pyridin-2-yl)ethyl]-2,3-dihydro-1H-isoindol-1-one], the inhibition at 10 µM came to 99%. Still for that read-out and setting: the figure for `O=C1c2cc(-c3nnc(C(F)F)o3)ccc2CN1[C@H](C1CCOCC1)[C@@H](O)c1cccc(C(F)(F)F)c1` (racemic) [Example 116, 6-[5-(difluoromethyl)-1,3,4-oxadiazol-2-yl]-2-{(1RS,2SR)-2-hydroxy-1-(oxan-4-yl)-2-[3-(trifluoromethyl)phenyl]ethyl}-2,3-dihydro-1H-isoindol-1-one] is 101%.

As for `O=C1c2cc(-c3nnc(C(F)F)o3)ccc2CN1[C@H](c1ccc(C(F)(F)F)nc1)[C@@H](O)c1ccc(F)cc1` (racemic) [Example 18, 6-[5-(difluoromethyl)-1,3,4-oxadiazol-2-yl]-2-{(1RS,2SR)-2-(4-fluorophenyl)-2-hydroxy-1-[6-(trifluoromethyl)pyridin-3-yl]ethyl}-2,3-dihydro-1H-isoindol-1-one], the inhibition at 10 µM stood at 99%. As to `O=C1c2cc(-c3nnc(C(F)F)o3)ccc2CN1[C@H](c1cccc(F)c1)[C@@H](O)c1ccc(F)cc1` (racemic) [Example 21, 6-[5-(difluoromethyl)-1,3,4-oxadiazol-2-yl]-2-[(1RS,2SR)-1-(3-fluorophenyl)-2-(4-fluorophenyl)-2-hydroxyethyl]-2,3-dihydro-1H-isoindol-1-one], the inhibition at 10 µM worked out at 100%. Consider `O=C1c2cc(-c3nnc(C(F)F)o3)ccc2CN1[C@H](c1ccccc1)[C@@H](O)c1ccccc1` [Example 11, 6-[5-(difluoromethyl)-1,3,4-oxadiazol-2-yl]-2-[(1R,2S)-2-hydroxy-1,2-diphenylethyl]-2,3-dihydro-1H-isoindol-1-one], for which the inhibition at 10 µM was 99%.

Consider `O=C1c2cc(-c3nnc(C(F)F)o3)ccc2CN1[C@H](c1cnccn1)[C@@H](O)c1ccc(Cl)cc1` (single isomer, unassigned) [Example 96, 2-[(1R*,2S*)-2-(4-chlorophenyl)-2-hydroxy-1-(pyrazin-2-yl)ethyl]-6-[5-(difluoromethyl)-1,3,4-oxadiazol-2-yl]-2,3-dihydro-1H-isoindol-1-one], for which the inhibition at 10 µM was determined as 100%. The same measure, in the same setting: the figure for `O=C1c2cc(-c3nnc(C(F)F)o3)ccc2CN1[C@H](c1cccnn1)[C@@H](O)c1ccc(Cl)cc1` (single isomer, unassigned) [Example 111, 2-[(1R*,2S*)-2-(4-chlorophenyl)-2-hydroxy-1-(pyridazin-3-yl)ethyl]-6-[5-(difluoromethyl)-1,3,4-oxadiazol-2-yl]-2,3-dihydro-1H-isoindol-1-one] is 99%; for `O=C1c2cc(-c3nnc(C(F)F)o3)ccc2CN1[C@H](C1CC1)[C@@H](O)c1cccc(F)n1` (single isomer, unassigned) [Example 79, 2-[(1R*,2R*)-1-cyclopropyl-2-(6-fluoropyridin-2-yl)-2-hydroxyethyl]-6-[5-(difluoromethyl)-1,3,4-oxadiazol-2-yl]-2,3-dihydro-1H-isoindol-1-one] it is 99%; for `O=C1c2cc(-c3nnc(C(F)F)o3)ccc2CN1[C@H](c1cccc(C(F)(F)F)c1)[C@@H](O)c1ccccn1` (racemic) [Example 24, 6-[5-(difluoromethyl)-1,3,4-oxadiazol-2-yl]-2-{(1RS,2RS)-2-hydroxy-2-(pyridin-2-yl)-1-[3-(trifluoromethyl)phenyl]ethyl}-2,3-dihydro-1H-isoindol-1-one] it is 99%. Consider `O=C1c2cc(-c3nnc(C(F)F)o3)ccc2CN1[C@H](c1ccccn1)[C@@H](O)c1ccc(Cl)cn1` (single isomer, unassigned) [Example 112, 2-[(1R*,2R*)-2-(5-chloropyridin-2-yl)-2-hydroxy-1-(pyridin-2-yl)ethyl]-6-[5-(difluoromethyl)-1,3,4-oxadiazol-2-yl]-2,3-dihydro-1H-isoindol-1-one], for which the inhibition at 10 µM was found to be 99%. On the same count and under the same terms, the value for `O=C1c2cc(-c3nnc(C(F)F)o3)ccc2CN1[C@H](c1cccc(F)n1)[C@@H](O)c1ccc(F)cn1` (single isomer, unassigned) [Example 126, 6-[5-(difluoromethyl)-1,3,4-oxadiazol-2-yl]-2-[(1R*,2R*)-2-(5-fluoropyridin-2-yl)-1-(6-fluoropyridin-2-yl)-2-hydroxyethyl]-2,3-dihydro-1H-isoindol-1-one] was 101%; that for `O=C1c2cc(-c3nnc(C(F)F)o3)ccc2CN1[C@H](c1ccccc1)[C@H](O)c1ccccc1F` (racemic) [Example 139, 6-[5-(difluoromethyl)-1,3,4-oxadiazol-2-yl]-2-[(1RS,2RS)-2-(2-fluorophenyl)-2-hydroxy-1-phenylethyl]-2,3-dihydro-1H-isoindol-1-one] was 100%; that for `O=C1c2cc(-c3nnc(C(F)F)o3)ccc2CN1[C@H](C1CCC(F)(F)CC1)[C@@H](O)c1ccccn1` (racemic) [Example 81, 2-[(1RS,2RS)-1-(4,4-difluorocyclohexyl)-2-hydroxy-2-(pyridin-2-yl)ethyl]-6-[5-(difluoromethyl)-1,3,4-oxadiazol-2-yl]-2,3-dihydro-1H-isoindol-1-one] was 100%.

For the origin of these results see patent US12384770B2, “Heterocyclic compound” (Takeda Pharmaceutical Company Limited, priority 2019, dated 2025).
